Results published in publication PMC11499995 (Communications Biology, 2024).

Target: T1, mNeonGreen (Branchiostoma lanceolatum, UniProt A0A1S4NYF2, C173I/S175A/W191I)
T1 sequence (A0A1S4NYF2 25-260 C173I/S175A/W191I): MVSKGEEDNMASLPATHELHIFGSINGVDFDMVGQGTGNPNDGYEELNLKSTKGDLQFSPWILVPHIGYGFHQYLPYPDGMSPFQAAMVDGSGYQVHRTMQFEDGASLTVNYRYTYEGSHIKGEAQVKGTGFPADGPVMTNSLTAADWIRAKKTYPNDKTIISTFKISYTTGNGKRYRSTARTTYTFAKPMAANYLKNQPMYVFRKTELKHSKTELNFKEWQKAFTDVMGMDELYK
Assay: fluorescence quenching titration, purified protein
Type: binding

**Q.** Which Kd does the source give for O=S(=O)(O)O [sulfate] here?
**A.** 33 ± 3 mM
